Where “and” joins values, the source holds several entries; their conditions need not be identical. Equal values may be shown once. Read-outs that look alike come from different tables or passages of the source.
Columns and labels:
in vivo = conditions: male, PXB (human liver-chimeric), mouse, po, 10 mg/kg
VeroE6 cells [1] = conditions: African green monkey, 6 h
in vitro [2] = conditions: human, HeLa-ACE2-TMPRSS2 cells
in vitro [3] = conditions: African green monkey, VeroE6 cells
[4] = Pharmacokinetic study in ICR mice
[5] = mouse, in vivo
VeroE6 cells [6] = assay: Cytotoxicity (WST-8) in noninfected VeroE6 cells
SARS-CoV-2 M^pro/3CL^pro = SARS-CoV-2 M^pro/3CL^pro (Severe acute respiratory syndrome coronavirus 2, UniProt P0DTD1); format: biochemical; parameters: IC95, individual assays / IC95, Average: unit: µM
HeLa-ACE2-TMPRSS2 cells = assay: Cytotoxicity (WST-8) in noninfected HeLa-ACE2-TMPRSS2 cells; conditions: read-out: CC50, HeLa-ACE2-TMPRSS2
SARS-CoV-2UW-5250^Delta = system: SARS-CoV-2UW-5250^Delta; parameters: species or system hACE2 knock-in mice; conditions: mouse, in vivo, ip, 100 mg/kg
human cathepsin L = biological target: T1, human cathepsin L (Homo sapiens, UniProt P07711); assay: Human cathepsin L inhibitor screening assay; format: biochemical; conditions: for % inhibition against human Cathepsin: triplicate; for IC50: 30 minute incubation, mean ± 1 S.D., n=3
T1 construct: purchased abcam ab197012

A549-ACE2-TMPRSS2 cells = conditions: read-out: CC50, A549-ACE2-TMPRSS2; noninfected cells
SARS-CoV-2 M^pro = SARS-CoV-2 M^pro (Severe acute respiratory syndrome coronavirus 2, UniProt P0DTD1); conditions: PDB 8DOX (TKB245), 8DPR (TKB248)
[7] = system: SARS-CoV-2NC928-2N^Omicron_BA.1; parameters: species or system hACE2 knock-in mice; conditions: mouse, in vivo; for Virus titer in lung: ip
[8] = system: SARS-CoV-2NCD1288^Omicron_BA.2; parameters: species or system hACE2 knock-in mice; conditions: mouse, in vivo, ip, 120 mg/kg
Glycine-added M^pro = Glycine-added M^pro (Severe acute respiratory syndrome coronavirus 2, UniProt P0DTD1)
[9] = biological target: authentic SARS-CoV-2 M^pro (Severe acute respiratory syndrome coronavirus 2, UniProt P0DTD1)
[10] = read-out: CC50, VeroE6 + 2 µM CP100356, CP100356 2 µM
[11] = source data, M^pro enzyme assay

T1 sequence (P07711 114-333): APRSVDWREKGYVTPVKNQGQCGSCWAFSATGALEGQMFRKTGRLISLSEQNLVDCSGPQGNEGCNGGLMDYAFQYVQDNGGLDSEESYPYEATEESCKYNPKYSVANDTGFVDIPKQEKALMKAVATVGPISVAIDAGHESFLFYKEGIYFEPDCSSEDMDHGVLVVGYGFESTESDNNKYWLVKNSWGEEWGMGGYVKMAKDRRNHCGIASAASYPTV

SMILES	CC50 (VeroE6 cells [6]; read-out: CC50, VeroE6)	CC50 (VeroE6 cells [6]; [10])	SARS-CoV2 M^pro enzyme assay IC95 (SARS-CoV-2 M^pro/3CL^pro; FRET, mean ± 1 S.D.)	IC95, Average (SARS-CoV-2 M^pro/3CL^pro; [11])	CC50 (HeLa-ACE2-TMPRSS2 cells)	Effect on human cathepsin L (in words) (human cathepsin L)	% inhibition against human Cathepsin (human cathepsin L; 0.00106 µM)	% inhibition against human Cathepsin (human cathepsin L; 0.0053 µM)	% inhibition against human Cathepsin (human cathepsin L; 0.0266 µM)	% inhibition against human Cathepsin (human cathepsin L; 0.6 µM)	% inhibition against human Cathepsin (human cathepsin L; 3.3 µM)	% inhibition against human Cathepsin (human cathepsin L; 16.6 µM)	IC50 (human cathepsin L)	CC50 (A549-ACE2-TMPRSS2 cells)	Binding mode in co-crystal structure (SARS-CoV-2 M^pro)	CC50 (HepG2 cells)	further results
CC(C)(C)[C@H](NC(=O)C(F)(F)F)C(=O)N1C[C@H]2[C@@H]([C@H]1C(=O)N[C@H](C#N)C[C@@H]1CCNC1=O)C2(C)C [Nirmatrelvir, reference compound]																	half-life (in vivo): 1.03 h; Intracellular amount, avg (VeroE6 cells [1]; 10 µM): 0 pmol(total); Intracellular amount, individual (VeroE6 cells [1]; 10 µM): 0 pmol(total); intracellular compound, /1x10^6 (VeroE6 cells [1]; 10 µM): 0 /1x10^6; intracellular compound, pmol(total) (VeroE6 cells [1]; 10 µM): 0 pmol; Intracellular amount, avg (VeroE6 cells [1]; 50 µM): 0.03906 pmol(total); Intracellular amount, avg (VeroE6 cells [1]; 100 µM): 0.1149 pmol(total); CC50 at 3 days (in vitro [2]): > 100 µM; CC50 at 3 days (in vitro [3]): > 100 µM
CC(C)(C)[C@H](NC(=O)C(F)(F)F)C(=O)N1C[C@H]2[C@@H]([C@H]1C(=O)N[C@@H](C[C@@H]1CCNC1=O)C(=O)c1nc3c(F)cccc3s1)C2(C)C [TKB245]	> 100 µM	> 100 µM	0.14 ± 0.07 µM	0.1363	> 100 µM	neither of human cysteine enzymes, cathepsin L and calpain, were significantly affected	0%	0%	0% and 0.8979%	0% and 2.5149%	9.142% and 0% and 2.217%	21.1326% and 17.6611% and 11.0896%	> 16 µM	> 100 µM	covalent bond formation between Cys145 and 4-fluorobenzothioazoly ketone	> 200 µM	Plasma concentration ([4]; ICR mice, i.p. 10 mg/kg, 2:00:00, individual mice, 10 mg/kg): 528.9 ng/mL; Plasma concentration ([4]; ICR, i.p., 120 min, individual animals (2 per time point), LC/MS/MS): 528.86 ng/mL; Body weights and survival rates [5]: no significant changes were recorded; IC95, individual assays (SARS-CoV-2 M^pro/3CL^pro; source data, M^pro enzyme assay, listed as TKB0245): 0.096 and 0.213 and 0.100; Virus titer in lung (SARS-CoV-2UW-5250^Delta): 6.24 Log10 PFU/gr and 6.89 Log10 PFU/gr; Virus titer in lung ([7]; 100 mg/kg): 2.95 Log10 PFU/gr and 3.55 Log10 PFU/gr
CC(C)(C)[C@H](NC(=O)C(F)(F)F)C(=O)N1C[C@H]2[C@@H]([C@H]1C(=S)N[C@@H](C[C@@H]1CCNC1=O)C(=O)c1nc3c(F)cccc3s1)C2(C)C [TKB248]	> 100 µM	> 100 µM	6.00 ± 5.29 µM	6.000	> 100 µM	neither of human cysteine enzymes, cathepsin L and calpain, were significantly affected	0%	0%	0%	0.7754% and 0%	3.874% and 0.1997% and 5.01%	10.3453% and 15.2677% and 19.1834%	> 16 µM	> 100 µM	covalent bond formation between Cys145 and 4-fluorobenzothioazoly ketone	> 200 µM	Body weights and survival rates ([5]; ip, 120 mg/kg): no significant changes were recorded; IC50 (SARS-CoV-2 M^pro/3CL^pro; FRET, mean ± 1 S.D., read-out: SARS-CoV2 M^pro enzyme assay IC50): 0.074 ± 0.034 µM; IC95, individual assays (SARS-CoV-2 M^pro/3CL^pro; source data, M^pro enzyme assay, listed as TKB0248): 12.00 and 2.000 and 4.000; IC50 (SARS-CoV-2 M^pro/3CL^pro; source data, M^pro enzyme assay, listed as TKB0248, read-out: IC50, individual assays): 0.0472 µM and 0.0622 µM and 0.113 µM; IC50 (SARS-CoV-2 M^pro/3CL^pro; source data, M^pro enzyme assay, read-out: IC50, Average): 0.0741 µM; Virus titer in lung [8]: 5.57 Log10 PFU/gr and 4.93 Log10 PFU/gr; Peak ratio, Monomer (Glycine-added M^pro): 36.5%; Peak ratio, Monomer-1X compound (Glycine-added M^pro): 21.2%; Peak ratio, Dimer-1X compound [9]: 42.6% and 25.2%; Peak ratio, M^pro Monomer [9]: 8.6% and 7.7%; lung virus titer, ave of log pfu/g [7]: 4.602 log pfu/g and 4.836 log pfu/g; Virus titer in lung ([7]; 120 mg/kg): 4.60 Log10 PFU/gr and 4.84 Log10 PFU/gr

Reference: paper PMC9958325 (Nature Communications, 2023)
